Reference: patent publication US20230100173A1, “A TOPICAL COMPOSITION COMPRISING AN EXTRACT OF COMBINED HERBS […] ARILLUS FOR TLSP INHIBITION AND THE TREATMENT OR A[…] SKIN INFLAMMATORY DISEASE AND THE USE THEREOF” (ME[…]., LTD, priority 2020, published 2023)

How the values were obtained:
[1] = test system: IL-33; assay: IL-33 expression in dorsal skin of DNFB mice (RT-PCR); format: in vivo, mouse; conditions: 16th day, WIN-1001X 10 mg/ml, DEX 200 μM, DNFB+DIW 9.47
Description: (§1) 100 μL of 0.15% (w/v) DNFB (2,4-dinitrofluorobenzene, D1529, Sigma-Aldrich Co. Ltd.) was spread on […] of 6 weeks-old BALB/C female mouse (DBL Co., Ltd. Incheon, Korea) and after removing the central dorsal hair, 100 μL of 0.15% (w/v) DNFB (2,4-dinitrofluorobenzene, D1529, Sigma-Aldrich Co. Ltd.) was spread at every third day starting from at 7th day to 16th day to induce skin inflammation.
(§2) In order to determine the anti-inflammatory activity of inventive extract, following inhibition test of cytokine expression using test animal was performed according to the procedure disclosed in the literature (Li et al., Drug. Des. Devel. Ther., 2016, Feb. 19; 10:781-191).
(§3) At 16th day after the treatment of DNFB, RNA (FATRR-001, Favorgan) was extracted from the dorsal skin of mice prepared in Experimental Example 2 and cDNA was synthesized from the RNA using by cDNA synthesis kit (RRO36A, TAKARA). The polymerization reaction was performed using by the synthesized cDNA and Sybrgreen kit (RT500M, Enzynomics) and then Real-time-PCR was performed using by primers for various cytokines involved in skin inflammation (GADPH, TSLP, GM-CSF, IL-4, IL-10, IL-13, IL-31 and IL-33) as disclosed in Table 7.

[2] = test system: IL-4; assay: IL-4 expression in dorsal skin of DNFB mice (RT-PCR); format: in vivo, mouse; conditions: 16th day, WIN-1001X 10 mg/ml, DEX 200 μM, DNFB+DIW 11.4
Description: as §1, §2, §3

[3] = test system: IL-1β; assay: Inhibition of TNF alpha-induced IL-1β expression in HaCaT cells (RT-PCR); format: cell-based, human; conditions: TNFα 50 ng/ml, extract 1 μg/ml, Dex 200 nM, mean
Description: (§4) In order to determine the anti-inflammatory activity of inventive extract, following inhibition test of cytokine expression using HaCaT cell was performed according to the procedure disclosed in the literature (Jeong et al., 2019, J. Invest. Dermatol., May; 139 (5): pp 1098-1109).
(§5) HaCaT cell (human epithelial keratinocyte cell, 300493, CLS) was inoculated into DMEM medium containing 10% Fetal bovine serum, 100 units/m1 of penicillin, 100n/m1 of streptomycin (D6429, Sigma-Aldrich Co. Ltd) and was incubated in the incubator (HERA cell 150i, Thermo Fisher Scientific Co. Ltd.) maintaining optimum humidity (85-95%) and 5% CO2 atmosphere.
(§6) For performing gene expression test, the incubated cells were transferred to 12 wells and 50 ng/ml of TNF alpha (RC214-12, Biobasic Co. Ltd) was treated therewith for 1 hour to induce inflammatory response.
(§7) 1 hour after inducing the inflammation, 1 μg/ml of inventive extract prepared in Examples was treated with identical medium and subjected to incubation for 1 hour. After the incubation, RNA (FATRR-001, Favorgen) was extracted from the cell and cDNA was synthesized from the RNA using by cDNA synthesis kit (RRO36A, TAKARA). […]

[4] = test system: mast cells infiltrated into inflamed lesion; format: in vivo, mouse; conditions: DNFB BALB/C mice, 16th day, toluidine blue; topical WIN-1001X 10 mg/ml, DEX 200 μM; acetone+DIW = 1, DNFB+DIW 3.18
Description: (§8) Ltd.) was spread at every third day starting from at 7th day to 16th day to induce skin inflammation. […] Additionally, the histological analysis on skin tissue of test animal has been performed. Specifically, the dorsal skin tissue occurring dermatitis was fixed on 4% (w/v) paraformaldehyde solution ([MUT], Sigma-Aldrich) in shaker maintaining 4° C. (CR300, […] ) at 16th day after the sample treatment and 12 hours after the fixation, the dehydrated and transparent tissue was embedded in paraffin, sliced (5 μm of width) to make tissue slices.

[5] = test system: DNFB-induced skin dermatitis, BALB/C female mouse; assay: DNFB-induced atopic dermatitis in BALB/C mice, skin dermatitis severity score; format: in vivo; conditions: 16th day, topical WIN-1001X 10 mg/ml, DEX 200 μM, DNFB+DIW 8.8
Description: To confirm the inhibitory effect of inventive extract on the atopic dermatitis, the animal model test using by mice, was performed according to the method disclosed in the reference (Li et al., Drug. Des. Devel. Ther., 2016, Feb. 19; 10:781-191).
as §1
For the purpose of comparing with test group, the identical test excepting using acetone instead of DNFB and DIW instead of test sample with the above procedure was performed.

[6] = test system: skin epidermal layer; format: in vivo, mouse; conditions: DNFB BALB/C mice, 16th day, H&E; topical WIN-1001X 10 mg/ml, DEX 200 μM; acetone+DIW = 1, DNFB+DIW 7.06
Description: as §8

[7] = test system: IL-22; assay: IL-22 expression in dorsal skin of DNFB mice (RT-PCR); format: in vivo, mouse; conditions: 16th day, WIN-1001X 10 mg/ml, DEX 200 μM, DNFB+DIW 29.2
[8] = test system: IL-31; assay: IL-31 expression in dorsal skin of DNFB mice (RT-PCR); format: in vivo, mouse; conditions: 16th day, WIN-1001X 10 mg/ml, DEX 200 μM, DNFB+DIW 3.93
Description: as §1, §2, §3

[9] = test system: TSLP; assay: TSLP expression in dorsal skin of DNFB mice (RT-PCR); format: in vivo, mouse; conditions: 16th day, WIN-1001X 10 mg/ml, DEX 200 μM, DNFB+DIW 7.51
Description: as §1
In order to determine the anti-inflammatory activity of inventive extract, following inhibition test of TSLP cytokine expression using test animal was performed according to the procedure disclosed in the literature (Li et al., Drug. Des. Devel. Ther., 2016, Feb. 19; 10:781-191).
as §3, with “TSLP” for “various”, “inflammation” for “inflammation (GADPH, TSLP, GM-CSF, IL-4, IL-10, IL-13, IL-31 and IL-33)”

[10] = test system: IL-13; assay: IL-13 expression in dorsal skin of DNFB mice (RT-PCR); format: in vivo, mouse; conditions: 16th day, WIN-1001X 10 mg/ml, DEX 200 μM, DNFB+DIW 48.6
Description: as §1, §2, §3

[11] = test system: IL-10; assay: IL-10 expression in dorsal skin of DNFB mice (RT-PCR); format: in vivo, mouse; conditions: 16th day, WIN-1001X 10 mg/ml, DEX 200 μM, DNFB+DIW 19.3
Description: as §1, §2, §3

[12] = test system: TSLP; assay: Inhibition of TNF alpha-induced TSLP expression in HaCaT cells (RT-PCR); format: cell-based, human; conditions: TNFα 50 ng/ml, extract 1 μg/ml, Dex 200 nM, mean
Description: as §4, §5, §6, §7

C[C@@H]1C[C@H]2[C@@H]3CCC4=CC(=O)C=C[C@]4(C)[C@@]3(F)[C@@H](O)C[C@]2(C)[C@@]1(O)C(=O)CO [DEX, Dexamethasone]
IL-33 expression (RT-PCR, relative to acetone+DIW = 1) [1]: 0.7365
IL-4 expression (RT-PCR, relative to acetone+DIW = 1) [2]: 4.798
IL-1β expression (RT-PCR, relative to untreated = 1) [3]: 1.081
relative number of mast cells [4]: 0.8548 fold
Improving effect on skin dermatitis (severity score, total score 12) [5]: 2.2
relative area of epidermis [6]: 1.638 fold
IL-22 expression (RT-PCR, relative to acetone+DIW = 1) [7]: 13.08
IL-31 expression (RT-PCR, relative to acetone+DIW = 1) [8]: 1.001
TSLP expression (RT-PCR, relative to acetone+DIW = 1) [9]: 1.311
IL-13 expression (RT-PCR, relative to acetone+DIW = 1) [10]: 12.56
IL-10 expression (RT-PCR, relative to acetone+DIW = 1) [11]: 20.44
TSLP expression (RT-PCR, relative to untreated = 1) [12]: 52.49
